Patent US20240398899A1 (priority 2021, published 2024)

Experiments:
Format in all cases: cell-based, human
[1] = system: SH-SY5Y neuronal cells; assay: Mitochondrial membrane potential against MPP+ iodide damage, JC-1 assay; conditions: MPP+ iodide 1 mM; for Mitochondrial membrane potential: red/green fluorescence ratio
Procedure: The plated cells were incubated overnight in 5% CO2 incubator at 37° C. After 24 h, cells were treated with concentrations of recombinant lectin protein having SEQ ID NO: 1 ranging from 1 μg/ml-50 μg/ml for 24 h. After 24 h of treatment, cells were exposed to damage (MPP+ iodide 1 mM) for 24 h. […] Untreated cells were included as control. Cells treated with Deprenyl served as positive control. After MPP+ iodide exposure, the protective effect of recombinant lectin protein having SEQ ID NO: 1 on mitochondrial membrane potential was assessed by JC-1 assay as follows; after incubation, the supernatants were discarded and 100 μl of JC1-dye solution (prepared by diluting 1 mM DMSO stock in to 10 μM in 1×PBS) was added to each well. The cells were then incubated with the dye in CO2 incubator at 37° C. for 15 min. After 15 min of incubation, the supernatant was removed, and the cells were washed twice with 1×PBS (phosphate buffer saline). 100 μl of 1×PBS was finally added to each well. Red fluorescence (excitation 550 nm, emission 600 nm) and green fluorescence (excitation 485 nm, emission 535 nm) were measured using Biotek Synergy HT plate reader. The mitochondrial membrane potential (Δψm) was calculated as the ratio of intensity of red fluorescence to intensity of green fluorescence described as follows: • Δψm=Intensity of red fluorescence/Intensity of green fluorescence • The percentage increase/restoration in Mitochondrial Membrane Potential against MPP+ iodide damage was calculated as:
[formula] • Where X=Δψm corresponding to SEQ ID NO: 1+ MPP+ iodide treated cells • R=Δψm corresponding to control cells (MPP+ iodide damage alone)

[2] = system: Calbindin D; assay: Parkinson biomarker multiplex analysis/ELISA, MPP+ damaged SH-SY5Y; conditions: MPP + Iodide (2 mM)
Procedure: (§1) After overnight incubation as in the previous examples, cells were treated with recombinant lectin protein having SEQ ID NO: 1 at different concentrations ranging from 0.001 μg/ml-1 μg/ml for 24 h for Parkinson disease and 0.01 μg/ml-25 μg/ml for 24 h for Alzheimer's disease. • Parkinson Disease: After 24 h of pre-treatment with recombinant lectin protein having SEQ ID NO: 1, cells were exposed (MPP+) for another 24 h. Cells treated with MPP+Iodide were included as Control. […] The cells treated with Galantamine were included as positive Control.
(§2) The levels of markers were determined by multiplex analysis as: Cell culture supernatants were diluted (1:2) with Calibrator Diluent. 50 μl of standard or sample was added per well. 50 μl of the microparticle cocktail was added to each well of the microplate and covered with a foil plate sealer. The plate was incubated for 2 hours at room temperature on a horizontal orbital microplate shaker. The plate was washed using a magnetic device designed to accommodate a microplate. Washing was done by applying the magnet to the bottom of the microplate, allowing 1 minute before removing the liquid, filling each well with wash buffer (100 μl) and allowing 1 minute before removing the liquid again. 50 μl of diluted Biotin-Antibody Cocktail was added to each well. Covered the plate with a foil plate sealer and incubated for 1 hour at room temperature on the shaker. Repeated the wash step. 50 μl of diluted Streptavidin-PE was added to each well. The plate was securely covered with a foil plate sealer and incubated for 30 minutes at room temperature on the shaker. Repeated the wash step. The microparticles were resuspended by adding 100 μl of Wash Buffer to each well. The plate was incubated for 2 minutes on the shaker and read within 90 minutes using Magpix® multiplex machine. Levels of biomarkers for Parkinson's and Alzheimer's disease were estimated using Magpix® multiplex machine.
(§3) For Parkinson's the percent modulation in each sample was determined as follows:
(§4) [{Concentration of biomarkers(pg/ml) in SEQ ID NO:1+MPP+Iodide treated cells)−Concentration of biomarkers(pg/ml) in Control cells(MPP+Iodide alone treated)}/Concentration of biomarkers(pg/ml) in Control cells(MPP+Iodide alone treated)]*100

[3] = system: Dopamine; assay: as above; conditions: MPP + Iodide (2 mM)
Procedure: as §1, §2, §3, §4

[4] = system: ICAM1/CD54; assay: as above; conditions: MPP + Iodide (2 mM)
Procedure: as §1, §2, §3, §4

[5] = system: Park7/DJ-1; assay: as above; conditions: MPP + Iodide (2 mM)
Procedure: as §1, §2, §3, §4

[6] = system: S100b; assay: as above; conditions: MPP + Iodide (2 mM)
Procedure: as §1, §2, §3, §4

[7] = system: Serotonin; assay: as above; conditions: MPP + Iodide (2 mM)
Procedure: as §1, §2, §3, §4

## C#CCN(C)[C@H](C)Cc1ccccc1 [Deprenyl, reference compound]
[1]; 1 μM
  % Increase in Mitochondrial potential (w.r.t. control): 58.2%
  Mitochondrial membrane potential: 2.9
[1]; 10 μM
  % Increase in Mitochondrial potential (w.r.t. control): 67.9%
  Mitochondrial membrane potential: 3.1
[1]; 25 μM
  % Increase in Mitochondrial potential (w.r.t. control): 95.3%
  Mitochondrial membrane potential: 3.6
[1]; 50 μM
  % Increase in Mitochondrial potential (w.r.t. control): 79.6%
  Mitochondrial membrane potential: 3.3
[1]; 100 μM
  % Increase in Mitochondrial potential (w.r.t. control): 39.9%
  Mitochondrial membrane potential: 2.6
[2]; 10 μM
  % Change of Biomarkers markers (with respect to Control) Calbindin D: 5%
[2]; 50 μM
  % Change of Biomarkers markers (with respect to Control) Calbindin D: 0%
[2]; 100 μM
  % Change of Biomarkers markers (with respect to Control) Calbindin D: 3.3%
[3]; 10 μM
  % Change of Biomarkers markers (with respect to Control) Dopamine: 21.2%
[3]; 50 μM
  % Change of Biomarkers markers (with respect to Control) Dopamine: 37.7%
[3]; 100 μM
  % Change of Biomarkers markers (with respect to Control) Dopamine: −47.2%
[4]; 10 μM
  % Change of Biomarkers markers (with respect to Control) ICAM1/CD54: 12.9%
[4]; 50 μM
  % Change of Biomarkers markers (with respect to Control) ICAM1/CD54: −23.7%
[4]; 100 μM
  % Change of Biomarkers markers (with respect to Control) ICAM1/CD54: −37%
[5]; 10 μM
  % Change of Biomarkers markers (with respect to Control) Park7/DJ-1: −6.8%
[5]; 50 μM
  % Change of Biomarkers markers (with respect to Control) Park7/DJ-1: −7.9%
[5]; 100 μM
  % Change of Biomarkers markers (with respect to Control) Park7/DJ-1: −9.2%
[6]; 10 μM
  % Change of Biomarkers markers (with respect to Control) S100b: −6.7%
[6]; 50 μM
  % Change of Biomarkers markers (with respect to Control) S100b: −6.5%
[6]; 100 μM
  % Change of Biomarkers markers (with respect to Control) S100b: −6.5%
[7]; 10 μM
  % Change of Biomarkers markers (with respect to Control) Serotonin: 9.1%
[7]; 50 μM
  % Change of Biomarkers markers (with respect to Control) Serotonin: 33%
[7]; 100 μM
  % Change of Biomarkers markers (with respect to Control) Serotonin: 17.1%
